Assays:
Adiponectin = experiment: Measurement of expression level of adiponectin in human adipose-derived mesenchymal stem cells (ELISA); assay type: cell-based; details: for Adiponectin (pg/mL, avg ± S.D.): secreted into culture medium, day 14 of differentiation, together with IDX, sample 60 μM; for effect of increasing adiponectin expression (in words): 60 μM with IDX, day 14, Table 1
Procedure: Adiponectin is a representative protein hormone secreted in adipocytes. It is reported that the expression of adiponectin is increased with the differentiation into adipocytes. Accordingly, the amount of adiponectin secreted into a cell culture medium was measured as a marker of promotion of adipocyte differentiation. In order to measure the secreted amount of adiponectin, human adipose-derived mesenchymal stem cells purchased form Lonza, Inc. were gathered on day 14 after they began to differentiate into adipocytes and the amount of adiponectin was quantified using an adiponectin ELISA kit (R&D Systems, Cat. No. DY1065) as follows (Data were normalized to that of the control group). Specifically, after reacting with a capture antibody on a 96-well plate and washing with a washing buffer, the cells were treated with a sample at a concentration of 60 μM and incubated at room temperature for 2 hours. Subsequently, the cells were incubated with a detection antibody, HRP, a substrate solution and a stop solution for the time specified in the protocol, while washing 3 times between each step. After the final incubation, absorbance was measured at 450 nm using a spectrophotometer.

[1] = tested on: Human adipose-derived mesenchymal stem cells (hAT-MSCs); experiment: Inducement of differentiation of adipose-derived mesenchymal stem cells into adipocytes (Oil Red O staining); assay type: cell-based; details: day 14
Description: Human adipose-derived mesenchymal stem cells (hAT-MSCs) were purchased form Lonza, Inc. (Walkersville, Md., USA) and cultured according to the instructions of Lonza, Inc. The adipose-derived mesenchymal stem cells were induced to differentiate into adipocytes according to the instructions of Lonza, Inc. except that troglitazone (TRO) was used instead of indomethacin. Specifically, the mesenchymal stem cells were differentiated into adipocytes by adding to a culture of the mesenchymal stem cells […] insulin, 1 µM dexamethasone (DEXA), 0.5 mM isobutylmethylxanthine (IBMX) and […] TRO. To a test group, the compound of Example 1 was added to the medium at a concentration of 30 μM when inducing the differentiation into adipocytes. A positive control group was treated with 30 μM glibenclamide together with IDX. On day 14 after the adipose-derived mesenchymal stem cells began to differentiate into adipocytes, the cells were washed with 10 mL of phosphate-buffered saline (PBS) and then fixed for 10 minutes using a 10% formalin/PBS solution (0.2 mL/cm^2). The fixed cells were washed once with a 60% isopropanol solution (0.5 mL/cm^2) and lipid bodies in the adipocytes were stained for 10 minutes with Oil Red O dissolved in 60% isopropanol (0.2 mL/cm^2). Then, after staining again with hematoxylin to visualize nuclei, the cells were observed under a microscope.

| Compound | Adiponectin (pg/mL, avg ± S.D.) (Adiponectin) | effect of increasing adiponectin expression (in words) (Adiponectin) | differentiation into adipocytes as compared to treatment with IDX only ([1]; 30 μM added to medium when inducing differentiation, Oil Red O staining, microscope (FIG. 1)) | number of the stained cells compared with glibenclamide as positive control ([1]; 30 μM, Oil Red O staining (FIG. 1)) |
| --- | --- | --- | --- | --- |
| COc1ccc(Cl)cc1C(=O)NCCc1ccc(S(=O)(=O)NC(=O)NC2CCCCC2)cc1 [glibenclamide, reference compound] | 1832 ± 110 pg/mL | – | – | – |
| O=C(/C=C/c1ccc2c(c1)OCO2)OCc1cc(=O)c(O)co1 [Example 1, (2E)-(5-hydroxy-4-oxo-4H-pyran-2-yl)methyl 3-(benzo[d][1,3]dioxo-6-yl)acrylate] | 1435 ± 113 pg/mL | increased the expression of adiponectin | increased differentiation into adipocytes | slightly less |
| O=c1cc(CO)occ1O [kojic acid, reference compound] | 312 ± 103 pg/mL | did not show an effect of increasing adiponectin expression | – | – |
| O=C(/C=C/c1ccc2c(c1)OCCO2)OCc1cc(=O)c(O)co1 [Example 2, (2E)-(5-hydroxy-4-oxo-4H-pyran-2-yl)methyl 3-(2,3-dihydroxybenzo[b][1,4]dioxo-7-yl)acrylate] | 1300 ± 140 pg/mL | increased the expression of adiponectin | – | – |
